Measured values as given in paper PMC5622171 (Nature Communications, 2017).

What was measured:
Assay in all cases: KINOMEscan kinase profiling
Assay type in all cases: binding
ANKK1 = biological target: T1, ANKK1 (Homo sapiens, UniProt Q8NFD2); conditions: read-out: %Inhibition by 10 μM SPA70
T1 construct: purchased DiscoverX (Ambit Biosciences) KINOMEscan
Description: (§1) Kinase inhibition profiling assays. The kinase inhibition profiling assay (KINOMEscan) was performed by Ambit Biosciences, now part of DiscoveryX (Fremont, CA) in accordance with the […]
(§2) published protocol20, 21. […] If the inhibition of a kinase was greater […]
(§3) dilutions) starting from 30 µM.

ASK1 = biological target: T2, ASK1 (Homo sapiens, UniProt Q99683); conditions: read-out: %Inhibition by 10 μM SPA70
T2 construct: purchased DiscoverX (Ambit Biosciences) KINOMEscan
Description: as §1, §2, §3

ASK2 = biological target: T3, ASK2 (Homo sapiens, UniProt O95382); conditions: read-out: %Inhibition by 10 μM SPA70
T3 construct: purchased DiscoverX (Ambit Biosciences) KINOMEscan
Description: as §1, §2, §3

AURKA = biological target: T4, AURKA (Homo sapiens, UniProt O14965); conditions: read-out: %Inhibition by 10 μM SPA70
T4 construct: purchased DiscoverX (Ambit Biosciences) KINOMEscan
Description: as §1, §2, §3

CAMK1G = biological target: T5, CAMK1G (Homo sapiens, UniProt Q96NX5); conditions: read-out: %Inhibition by 10 μM SPA70
T5 construct: purchased DiscoverX (Ambit Biosciences) KINOMEscan
Description: as §1, §2, §3

CDC2L5 = biological target: T6, CDC2L5 (Homo sapiens, UniProt Q14004)
T6 construct: purchased DiscoverX (Ambit Biosciences) KINOMEscan
Description: as §1, §2, §3

CDK7 = biological target: T7, CDK7 (Homo sapiens, UniProt P50613); conditions: read-out: %Inhibition by 10 μM SPA70
T7 construct: purchased DiscoverX (Ambit Biosciences) KINOMEscan
Description: as §1, §2, §3

CHEK2 = biological target: T8, CHEK2 (Homo sapiens, UniProt O96017); conditions: read-out: %Inhibition by 10 μM SPA70
T8 construct: purchased DiscoverX (Ambit Biosciences) KINOMEscan
Description: as §1, §2, §3

CSNK1E = biological target: T9, CSNK1E (Homo sapiens, UniProt P49674); conditions: read-out: %Inhibition by 10 μM SPA70
T9 construct: purchased DiscoverX (Ambit Biosciences) KINOMEscan
Description: as §1, §2, §3

DCAMKL1 = biological target: T10, DCAMKL1 (Homo sapiens, UniProt O15075)
T10 construct: purchased DiscoverX (Ambit Biosciences) KINOMEscan
Description: as §1, §2, §3

DCAMKL3 = biological target: T11, DCAMKL3 (Homo sapiens, UniProt Q9C098); conditions: read-out: %Inhibition by 10 μM SPA70
T11 construct: purchased DiscoverX (Ambit Biosciences) KINOMEscan
Description: as §1, §2, §3

DYRK2 = biological target: T12, DYRK2 (Homo sapiens, UniProt Q92630); conditions: read-out: %Inhibition by 10 μM SPA70
T12 construct: purchased DiscoverX (Ambit Biosciences) KINOMEscan
Description: as §1, §2, §3

ERN1 = biological target: T13, ERN1 (Homo sapiens, UniProt O75460); conditions: read-out: %Inhibition by 10 μM SPA70
T13 construct: purchased DiscoverX (Ambit Biosciences) KINOMEscan
Description: as §1, §2, §3

GSK3B = biological target: T14, GSK3B (Homo sapiens, UniProt P49841)
T14 construct: purchased DiscoverX (Ambit Biosciences) KINOMEscan
Description: as §1, §2, §3

HPK1 = biological target: T15, HPK1 (Homo sapiens, UniProt Q92918); conditions: read-out: %Inhibition by 10 μM SPA70
T15 construct: purchased DiscoverX (Ambit Biosciences) KINOMEscan
Description: as §1, §2, §3

IRAK4 = biological target: T16, IRAK4 (Homo sapiens, UniProt Q9NWZ3)
T16 construct: purchased DiscoverX (Ambit Biosciences) KINOMEscan
Description: as §1, §2, §3

LOK = biological target: T17, LOK (Homo sapiens, UniProt O94804)
T17 construct: purchased DiscoverX (Ambit Biosciences) KINOMEscan
Description: as §1, §2, §3

MAP3K4 = biological target: T18, MAP3K4 (Homo sapiens, UniProt Q9Y6R4); conditions: read-out: %Inhibition by 10 μM SPA70
T18 construct: purchased DiscoverX (Ambit Biosciences) KINOMEscan
Description: as §1, §2, §3

MAP4K2 = biological target: T19, MAP4K2 (Homo sapiens, UniProt Q12851); conditions: read-out: %Inhibition by 10 μM SPA70
T19 construct: purchased DiscoverX (Ambit Biosciences) KINOMEscan
Description: as §1, §2, §3

MARK2 = biological target: T20, MARK2 (Homo sapiens, UniProt Q7KZI7); conditions: read-out: %Inhibition by 10 μM SPA70
T20 construct: purchased DiscoverX (Ambit Biosciences) KINOMEscan
Description: as §1, §2, §3

MELK = biological target: T21, MELK (Homo sapiens, UniProt Q14680); conditions: read-out: %Inhibition by 10 μM SPA70
T21 construct: purchased DiscoverX (Ambit Biosciences) KINOMEscan
Description: as §1, §2, §3

NDR1 = biological target: T22, NDR1 (Homo sapiens, UniProt Q15208); conditions: read-out: %Inhibition by 10 μM SPA70
T22 construct: purchased DiscoverX (Ambit Biosciences) KINOMEscan
Description: as §1, §2, §3

NEK2 = biological target: T23, NEK2 (Homo sapiens, UniProt P51955); conditions: read-out: %Inhibition by 10 μM SPA70
T23 construct: purchased DiscoverX (Ambit Biosciences) KINOMEscan
Description: as §1, §2, §3

NEK6 = biological target: T24, NEK6 (Homo sapiens, UniProt Q9HC98); conditions: read-out: %Inhibition by 10 μM SPA70
T24 construct: purchased DiscoverX (Ambit Biosciences) KINOMEscan
Description: as §1, §2, §3

PAK3 = biological target: T25, PAK3 (Homo sapiens, UniProt O75914); conditions: read-out: %Inhibition by 10 μM SPA70
T25 construct: purchased DiscoverX (Ambit Biosciences) KINOMEscan
Description: as §1, §2, §3

PDPK1 = biological target: T26, PDPK1 (Homo sapiens, UniProt O15530); conditions: read-out: %Inhibition by 10 μM SPA70
T26 construct: purchased DiscoverX (Ambit Biosciences) KINOMEscan
Description: as §1, §2, §3

PFTK1 = biological target: T27, PFTK1 (Homo sapiens, UniProt O94921)
T27 construct: purchased DiscoverX (Ambit Biosciences) KINOMEscan
Description: as §1, §2, §3

PIP5K1A = biological target: T28, PIP5K1A (Homo sapiens, UniProt Q99755); conditions: read-out: %Inhibition by 10 μM SPA70
T28 construct: purchased DiscoverX (Ambit Biosciences) KINOMEscan
Description: as §1, §2, §3

PKAC-alpha = biological target: T29, PKAC-alpha (Homo sapiens, UniProt P17612)
T29 construct: purchased DiscoverX (Ambit Biosciences) KINOMEscan
Description: as §1, §2, §3

RIOK1 = biological target: T30, RIOK1 (Homo sapiens, UniProt Q9BRS2); conditions: read-out: %Inhibition by 10 μM SPA70
T30 construct: purchased DiscoverX (Ambit Biosciences) KINOMEscan
Description: as §1, §2, §3

SBK1 = biological target: T31, SBK1 (Homo sapiens, UniProt Q52WX2); conditions: read-out: %Inhibition by 10 μM SPA70
T31 construct: purchased DiscoverX (Ambit Biosciences) KINOMEscan
Description: as §1, §2, §3

SRPK1 = biological target: T32, SRPK1 (Homo sapiens, UniProt Q96SB4); conditions: read-out: %Inhibition by 10 μM SPA70
T32 construct: purchased DiscoverX (Ambit Biosciences) KINOMEscan
Description: as §1, §2, §3

STK39 = biological target: T33, STK39 (Homo sapiens, UniProt Q9UEW8); conditions: read-out: %Inhibition by 10 μM SPA70
T33 construct: purchased DiscoverX (Ambit Biosciences) KINOMEscan
Description: as §1, §2, §3

TEC = biological target: T34, TEC (Homo sapiens, UniProt P42680); conditions: read-out: %Inhibition by 10 μM SPA70
T34 construct: purchased DiscoverX (Ambit Biosciences) KINOMEscan
Description: as §1, §2, §3

TESK1 = biological target: T35, TESK1 (Homo sapiens, UniProt Q15569); conditions: read-out: %Inhibition by 10 μM SPA70
T35 construct: purchased DiscoverX (Ambit Biosciences) KINOMEscan
Description: as §1, §2, §3

TNK2 = biological target: T36, TNK2 (Homo sapiens, UniProt Q07912); conditions: read-out: %Inhibition by 10 μM SPA70
T36 construct: purchased DiscoverX (Ambit Biosciences) KINOMEscan
Description: as §1, §2, §3

TNNI3K = biological target: T37, TNNI3K (Homo sapiens, UniProt Q59H18); conditions: read-out: %Inhibition by 10 μM SPA70
T37 construct: purchased DiscoverX (Ambit Biosciences) KINOMEscan
Description: as §1, §2, §3

TYRO3 = biological target: T38, TYRO3 (Homo sapiens, UniProt Q06418); conditions: read-out: %Inhibition by 10 μM SPA70
T38 construct: purchased DiscoverX (Ambit Biosciences) KINOMEscan
Description: as §1, §2, §3

WEE1 = biological target: T39, WEE1 (Homo sapiens, UniProt P30291); conditions: read-out: %Inhibition by 10 μM SPA70
T39 construct: purchased DiscoverX (Ambit Biosciences) KINOMEscan
Description: as §1, §2, §3

WEE2 = biological target: T40, WEE2 (Homo sapiens, UniProt P0C1S8); conditions: read-out: %Inhibition by 10 μM SPA70
T40 construct: purchased DiscoverX (Ambit Biosciences) KINOMEscan
Description: as §1, §2, §3

ZAK = biological target: T41, ZAK (Homo sapiens, UniProt Q9NYL2); conditions: read-out: %Inhibition by 10 μM SPA70
T41 construct: purchased DiscoverX (Ambit Biosciences) KINOMEscan
Description: as §1, §2, §3

ZAP70 = biological target: T42, ZAP70 (Homo sapiens, UniProt P43403); conditions: read-out: %Inhibition by 10 μM SPA70
T42 construct: purchased DiscoverX (Ambit Biosciences) KINOMEscan
Description: as §1, §2, §3

[1] = read-out: %Inhibition by 10 μM SPA70

T14 sequence (P49841 whole entry): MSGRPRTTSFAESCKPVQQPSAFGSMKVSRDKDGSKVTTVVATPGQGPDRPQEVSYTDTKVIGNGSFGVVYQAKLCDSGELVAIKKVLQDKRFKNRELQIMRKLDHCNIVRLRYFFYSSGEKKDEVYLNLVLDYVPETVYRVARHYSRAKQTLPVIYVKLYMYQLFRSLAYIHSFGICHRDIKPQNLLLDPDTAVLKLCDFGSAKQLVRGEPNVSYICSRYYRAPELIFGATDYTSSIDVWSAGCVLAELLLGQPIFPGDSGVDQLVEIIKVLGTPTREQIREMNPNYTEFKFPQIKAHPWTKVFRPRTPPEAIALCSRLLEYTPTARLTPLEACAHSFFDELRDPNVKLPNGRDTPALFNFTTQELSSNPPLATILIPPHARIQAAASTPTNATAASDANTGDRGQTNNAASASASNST
T42 sequence (P43403 whole entry): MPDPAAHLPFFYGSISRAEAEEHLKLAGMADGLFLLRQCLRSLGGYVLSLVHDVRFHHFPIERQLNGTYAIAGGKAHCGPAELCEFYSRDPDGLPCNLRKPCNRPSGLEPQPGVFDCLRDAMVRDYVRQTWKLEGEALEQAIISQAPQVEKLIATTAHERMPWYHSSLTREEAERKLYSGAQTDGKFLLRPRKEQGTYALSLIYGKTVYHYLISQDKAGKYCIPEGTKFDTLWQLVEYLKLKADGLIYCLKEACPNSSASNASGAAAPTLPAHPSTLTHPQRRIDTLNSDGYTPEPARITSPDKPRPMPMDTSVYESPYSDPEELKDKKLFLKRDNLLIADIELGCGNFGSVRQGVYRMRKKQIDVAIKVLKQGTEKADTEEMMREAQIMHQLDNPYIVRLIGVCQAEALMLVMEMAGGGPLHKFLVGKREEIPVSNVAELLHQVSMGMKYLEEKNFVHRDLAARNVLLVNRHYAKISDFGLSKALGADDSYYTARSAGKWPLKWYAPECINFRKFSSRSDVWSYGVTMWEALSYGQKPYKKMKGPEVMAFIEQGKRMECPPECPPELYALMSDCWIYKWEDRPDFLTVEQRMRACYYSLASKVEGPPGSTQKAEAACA
T34 sequence (P42680 whole entry): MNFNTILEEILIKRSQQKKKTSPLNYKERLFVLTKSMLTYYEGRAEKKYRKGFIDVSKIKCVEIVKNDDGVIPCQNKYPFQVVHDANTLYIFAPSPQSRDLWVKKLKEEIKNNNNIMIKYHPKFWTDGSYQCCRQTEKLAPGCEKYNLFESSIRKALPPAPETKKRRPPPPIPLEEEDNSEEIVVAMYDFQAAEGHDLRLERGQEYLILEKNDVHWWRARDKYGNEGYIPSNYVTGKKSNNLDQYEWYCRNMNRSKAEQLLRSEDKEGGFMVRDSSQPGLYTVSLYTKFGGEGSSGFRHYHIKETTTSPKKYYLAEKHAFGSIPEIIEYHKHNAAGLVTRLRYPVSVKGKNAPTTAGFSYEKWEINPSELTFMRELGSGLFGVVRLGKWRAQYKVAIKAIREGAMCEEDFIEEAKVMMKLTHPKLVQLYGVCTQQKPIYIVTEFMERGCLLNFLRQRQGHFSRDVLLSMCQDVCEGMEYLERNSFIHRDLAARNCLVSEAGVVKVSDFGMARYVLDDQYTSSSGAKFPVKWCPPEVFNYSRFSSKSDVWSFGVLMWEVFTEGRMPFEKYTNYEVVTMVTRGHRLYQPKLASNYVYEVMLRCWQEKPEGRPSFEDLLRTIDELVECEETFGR
T37 sequence (Q59H18 whole entry): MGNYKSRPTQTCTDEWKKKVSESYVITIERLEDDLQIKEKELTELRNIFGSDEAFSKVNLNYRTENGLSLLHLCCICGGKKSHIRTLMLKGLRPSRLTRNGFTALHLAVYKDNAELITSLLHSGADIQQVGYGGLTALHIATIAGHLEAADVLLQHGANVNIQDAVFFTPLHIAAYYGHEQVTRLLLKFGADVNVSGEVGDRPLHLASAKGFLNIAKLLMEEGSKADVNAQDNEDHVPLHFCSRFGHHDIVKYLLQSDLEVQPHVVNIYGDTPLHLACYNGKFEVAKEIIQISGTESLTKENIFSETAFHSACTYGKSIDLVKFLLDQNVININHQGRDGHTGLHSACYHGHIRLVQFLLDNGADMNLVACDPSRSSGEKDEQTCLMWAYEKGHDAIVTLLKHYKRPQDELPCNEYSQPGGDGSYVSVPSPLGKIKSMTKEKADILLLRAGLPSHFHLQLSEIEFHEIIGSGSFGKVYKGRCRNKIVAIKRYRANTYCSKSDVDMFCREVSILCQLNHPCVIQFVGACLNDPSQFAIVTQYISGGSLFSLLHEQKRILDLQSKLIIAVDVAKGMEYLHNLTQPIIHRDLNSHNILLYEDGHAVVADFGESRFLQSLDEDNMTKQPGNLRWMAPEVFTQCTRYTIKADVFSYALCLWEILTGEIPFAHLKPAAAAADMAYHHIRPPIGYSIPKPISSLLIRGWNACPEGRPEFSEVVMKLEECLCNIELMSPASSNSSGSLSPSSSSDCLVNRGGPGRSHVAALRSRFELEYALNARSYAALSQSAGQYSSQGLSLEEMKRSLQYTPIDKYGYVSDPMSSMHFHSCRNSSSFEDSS
T12 sequence (Q92630 whole entry): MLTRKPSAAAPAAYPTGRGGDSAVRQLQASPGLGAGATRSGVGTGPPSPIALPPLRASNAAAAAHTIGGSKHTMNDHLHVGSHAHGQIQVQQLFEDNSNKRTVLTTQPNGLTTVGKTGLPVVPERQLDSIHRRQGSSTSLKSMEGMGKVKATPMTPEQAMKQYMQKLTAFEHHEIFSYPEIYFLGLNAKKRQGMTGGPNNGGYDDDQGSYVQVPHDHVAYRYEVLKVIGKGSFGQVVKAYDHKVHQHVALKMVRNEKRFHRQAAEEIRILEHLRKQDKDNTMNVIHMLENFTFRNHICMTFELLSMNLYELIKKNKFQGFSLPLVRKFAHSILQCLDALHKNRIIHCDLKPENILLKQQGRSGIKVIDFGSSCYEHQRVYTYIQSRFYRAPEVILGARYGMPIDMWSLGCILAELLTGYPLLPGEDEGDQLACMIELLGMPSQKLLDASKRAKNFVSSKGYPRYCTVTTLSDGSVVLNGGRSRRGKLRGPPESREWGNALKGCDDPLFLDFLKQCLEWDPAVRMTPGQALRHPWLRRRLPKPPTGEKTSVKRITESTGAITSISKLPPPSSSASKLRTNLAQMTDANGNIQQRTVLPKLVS
T38 sequence (Q06418 41-890): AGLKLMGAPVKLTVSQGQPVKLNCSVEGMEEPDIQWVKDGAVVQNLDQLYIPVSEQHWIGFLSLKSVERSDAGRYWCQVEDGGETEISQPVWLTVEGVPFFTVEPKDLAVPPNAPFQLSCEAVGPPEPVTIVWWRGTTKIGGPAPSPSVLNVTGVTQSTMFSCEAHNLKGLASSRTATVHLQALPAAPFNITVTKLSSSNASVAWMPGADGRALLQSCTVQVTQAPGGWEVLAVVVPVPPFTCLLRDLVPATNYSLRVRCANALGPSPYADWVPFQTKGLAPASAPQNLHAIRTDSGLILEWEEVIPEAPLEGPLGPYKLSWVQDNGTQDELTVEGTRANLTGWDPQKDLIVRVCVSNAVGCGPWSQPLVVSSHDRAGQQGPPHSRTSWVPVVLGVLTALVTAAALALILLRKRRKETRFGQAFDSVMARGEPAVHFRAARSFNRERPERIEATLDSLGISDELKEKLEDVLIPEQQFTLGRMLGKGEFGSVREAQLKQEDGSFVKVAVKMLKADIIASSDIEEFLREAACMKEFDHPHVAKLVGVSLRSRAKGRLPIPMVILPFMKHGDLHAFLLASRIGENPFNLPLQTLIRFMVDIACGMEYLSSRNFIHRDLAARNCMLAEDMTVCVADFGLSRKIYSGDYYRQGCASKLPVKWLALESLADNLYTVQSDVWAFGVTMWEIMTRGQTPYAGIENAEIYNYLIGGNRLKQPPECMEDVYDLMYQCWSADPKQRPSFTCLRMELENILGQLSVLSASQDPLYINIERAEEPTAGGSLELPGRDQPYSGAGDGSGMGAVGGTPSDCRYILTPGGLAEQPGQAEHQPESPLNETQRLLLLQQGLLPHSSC
T22 sequence (Q15208 whole entry): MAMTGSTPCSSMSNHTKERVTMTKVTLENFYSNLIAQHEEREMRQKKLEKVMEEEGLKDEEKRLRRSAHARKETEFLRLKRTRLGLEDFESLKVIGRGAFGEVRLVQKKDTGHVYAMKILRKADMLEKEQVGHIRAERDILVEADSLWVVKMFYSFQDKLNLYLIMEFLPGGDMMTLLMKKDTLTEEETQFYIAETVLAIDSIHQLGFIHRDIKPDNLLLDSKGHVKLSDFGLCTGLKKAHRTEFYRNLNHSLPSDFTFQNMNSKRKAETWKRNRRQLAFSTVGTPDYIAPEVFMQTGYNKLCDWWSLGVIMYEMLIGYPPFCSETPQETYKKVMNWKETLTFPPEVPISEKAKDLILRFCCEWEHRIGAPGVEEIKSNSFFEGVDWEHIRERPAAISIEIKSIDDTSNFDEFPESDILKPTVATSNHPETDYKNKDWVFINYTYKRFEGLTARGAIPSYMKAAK
T23 sequence (P51955 whole entry): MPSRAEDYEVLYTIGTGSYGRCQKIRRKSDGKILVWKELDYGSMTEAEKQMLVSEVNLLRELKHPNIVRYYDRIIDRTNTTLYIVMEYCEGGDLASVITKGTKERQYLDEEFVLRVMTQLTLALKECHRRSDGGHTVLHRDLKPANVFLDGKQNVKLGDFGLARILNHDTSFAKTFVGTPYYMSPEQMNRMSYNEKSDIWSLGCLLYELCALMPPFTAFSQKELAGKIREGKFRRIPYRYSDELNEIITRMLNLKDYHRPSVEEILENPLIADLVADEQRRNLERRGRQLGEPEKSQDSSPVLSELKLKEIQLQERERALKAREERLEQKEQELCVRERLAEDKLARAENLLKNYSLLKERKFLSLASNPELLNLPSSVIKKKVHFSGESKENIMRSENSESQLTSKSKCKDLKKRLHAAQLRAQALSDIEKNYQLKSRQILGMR

What does the source list for `COc1ccc(OC)c(-n2nnc(S(=O)(=O)c3ccc(C(C)(C)C)cc3)c2C)c1` [SPA70]?
inhibition at 10 µM (ANKK1): 0%; inhibition at 10 µM (ASK1): 4%; inhibition at 10 µM (ASK2): 0%; inhibition at 10 µM (AURKA): 0%; inhibition at 10 µM (CAMK1G): 25%; %Inhibition by 10 μM SPA70 (CDC2L5): 0%; inhibition at 10 µM (CDK7): 19%; inhibition at 10 µM (CHEK2): 23%; inhibition at 10 µM (CSNK1E): 0%; %Inhibition by 10 μM SPA70 (DCAMKL1): 0%; inhibition at 10 µM (DCAMKL3): 0%; inhibition at 10 µM (DYRK2): 12%; inhibition at 10 µM (ERN1): 0%; %Inhibition by 10 μM SPA70 (GSK3B): not inhibited; inhibition at 10 µM (GSK3B; [1]): 0%; inhibition at 10 µM (HPK1): 1%; %Inhibition by 10 μM SPA70 (IRAK4): 0%; %Inhibition by 10 μM SPA70 (LOK): 0%; inhibition at 10 µM (MAP3K4): 0%; inhibition at 10 µM (MAP4K2): 0%; inhibition at 10 µM (MARK2): 16%; inhibition at 10 µM (MELK): 3%; inhibition at 10 µM (NDR1): 0%; inhibition at 10 µM (NEK2): 4%; inhibition at 10 µM (NEK6): 0%; inhibition at 10 µM (PAK3): 0%; inhibition at 10 µM (PDPK1): 0%; %Inhibition by 10 μM SPA70 (PFTK1): 0%; inhibition at 10 µM (PIP5K1A): 0%; %Inhibition by 10 μM SPA70 (PKAC-alpha): not inhibited; inhibition at 10 µM (PKAC-alpha; [1]): 0%; inhibition at 10 µM (RIOK1): 47%; inhibition at 10 µM (SBK1): 0%; inhibition at 10 µM (SRPK1): 0%; inhibition at 10 µM (STK39): 7%; inhibition at 10 µM (TEC): 0%; inhibition at 10 µM (TESK1): 0%; inhibition at 10 µM (TNK2): 0%; inhibition at 10 µM (TNNI3K): 0%; inhibition at 10 µM (TYRO3): 0%; inhibition at 10 µM (WEE1): 0%; inhibition at 10 µM (WEE2): 1%; inhibition at 10 µM (ZAK): 0%; inhibition at 10 µM (ZAP70): 22%
